In one assay the target is T1, 5-HT2C (Homo sapiens, UniProt P28335).
T1 construct: expressed in transfected cells
T1 sequence (P28335 33-458): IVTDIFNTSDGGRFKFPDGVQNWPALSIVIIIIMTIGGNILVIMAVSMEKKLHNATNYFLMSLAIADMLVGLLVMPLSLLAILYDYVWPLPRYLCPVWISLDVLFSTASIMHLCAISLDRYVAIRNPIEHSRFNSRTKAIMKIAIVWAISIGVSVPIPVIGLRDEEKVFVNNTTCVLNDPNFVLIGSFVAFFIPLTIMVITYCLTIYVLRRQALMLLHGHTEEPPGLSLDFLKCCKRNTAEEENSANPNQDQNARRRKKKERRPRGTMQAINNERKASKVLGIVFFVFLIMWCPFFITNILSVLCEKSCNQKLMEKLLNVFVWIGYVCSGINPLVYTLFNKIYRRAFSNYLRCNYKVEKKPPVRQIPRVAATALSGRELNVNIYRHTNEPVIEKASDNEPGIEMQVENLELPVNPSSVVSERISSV
As to the kind of experiment: PDSP radioligand competition binding. Conditions: radioligand [^3H]Mesulergine; read-out: In Vitro Affinity.

A further assay has as its target 5-HT1D (Homo sapiens, UniProt P28221). Briefly: PDSP radioligand competition binding. The following applies: radioligand [^3H]5-CT; read-out: In vitro Affinity.
Another assay deals with α1D (Homo sapiens, UniProt P25100). As to the kind of experiment: PDSP radioligand competition binding. The following applies: radioligand [^3H]Prazosin; read-out: In vitro Affinity. In general terms: Loss of bound radioactivity is the signal in a displacement assay; it reports binding, not function.
α1D, sequence (P25100 whole entry): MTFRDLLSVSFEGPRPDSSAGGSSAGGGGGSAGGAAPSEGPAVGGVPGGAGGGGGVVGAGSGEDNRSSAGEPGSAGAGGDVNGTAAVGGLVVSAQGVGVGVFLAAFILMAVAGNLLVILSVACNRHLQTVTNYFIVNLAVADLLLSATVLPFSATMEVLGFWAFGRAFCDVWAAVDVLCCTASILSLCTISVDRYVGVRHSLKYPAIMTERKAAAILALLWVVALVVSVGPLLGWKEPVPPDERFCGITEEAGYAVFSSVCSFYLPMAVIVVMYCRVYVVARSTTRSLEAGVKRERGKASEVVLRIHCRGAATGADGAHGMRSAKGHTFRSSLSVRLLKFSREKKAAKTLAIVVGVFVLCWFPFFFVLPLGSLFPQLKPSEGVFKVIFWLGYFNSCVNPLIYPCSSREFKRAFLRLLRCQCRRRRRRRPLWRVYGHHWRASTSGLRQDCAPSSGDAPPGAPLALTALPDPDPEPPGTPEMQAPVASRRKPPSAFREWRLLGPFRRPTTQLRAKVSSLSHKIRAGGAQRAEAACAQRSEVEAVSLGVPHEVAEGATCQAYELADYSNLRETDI
The next assay concerns the target α2A (Homo sapiens, UniProt P08913). Briefly: PDSP radioligand competition binding. The following applies: radioligand [^3H]Rauwolscine; read-out: In vitro Affinity.
A further assay concerns the target α2B (Homo sapiens, UniProt P18089). Briefly: PDSP radioligand competition binding. The following applies: radioligand [^3H]Rauwolscine; read-out: In vitro Affinity.
In the next assay the target is α2C (Homo sapiens, UniProt P18825). Briefly: PDSP radioligand competition binding. The following applies: radioligand [^3H]Rauwolscine; read-out: In vitro Affinity.
α2C, sequence (P18825 whole entry): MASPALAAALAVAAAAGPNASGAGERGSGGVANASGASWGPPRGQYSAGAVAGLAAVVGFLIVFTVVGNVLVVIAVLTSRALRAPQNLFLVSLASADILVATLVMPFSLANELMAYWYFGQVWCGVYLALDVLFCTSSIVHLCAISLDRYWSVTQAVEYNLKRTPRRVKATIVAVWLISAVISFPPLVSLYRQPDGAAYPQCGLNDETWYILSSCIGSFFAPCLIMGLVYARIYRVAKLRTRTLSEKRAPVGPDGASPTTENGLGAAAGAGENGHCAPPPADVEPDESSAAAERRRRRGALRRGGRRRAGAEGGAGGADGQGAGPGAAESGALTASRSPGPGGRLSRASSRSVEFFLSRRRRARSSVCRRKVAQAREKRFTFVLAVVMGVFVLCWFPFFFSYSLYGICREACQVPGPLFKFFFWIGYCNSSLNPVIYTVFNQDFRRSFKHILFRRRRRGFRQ
A further assay has as its target T2, dopamine D2 receptor (Homo sapiens, UniProt P14416).
T2 construct: expressed in transfected cells; host or cells: HEKT cells (ATCC)
In kind it is cell-based.

For a further assay, the target named is T3, 5-HT2A (Homo sapiens, UniProt P28223).
T3 construct: expressed in transfected cells
T3 sequence (P28223 whole entry, looked up): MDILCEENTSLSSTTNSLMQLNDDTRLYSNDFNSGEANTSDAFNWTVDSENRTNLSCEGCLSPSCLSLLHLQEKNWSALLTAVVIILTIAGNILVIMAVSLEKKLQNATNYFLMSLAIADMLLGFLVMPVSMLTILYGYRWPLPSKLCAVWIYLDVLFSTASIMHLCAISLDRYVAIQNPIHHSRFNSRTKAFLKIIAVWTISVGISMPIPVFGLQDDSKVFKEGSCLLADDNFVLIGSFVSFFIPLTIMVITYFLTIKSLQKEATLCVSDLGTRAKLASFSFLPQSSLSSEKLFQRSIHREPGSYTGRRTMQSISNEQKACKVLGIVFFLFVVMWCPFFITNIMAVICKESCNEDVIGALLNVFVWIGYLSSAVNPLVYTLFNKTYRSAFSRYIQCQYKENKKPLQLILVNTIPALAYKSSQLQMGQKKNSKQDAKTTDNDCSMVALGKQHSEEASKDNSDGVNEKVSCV
Briefly: PDSP receptor functional assay. In kind it is cell-based.

The test system of a further assay is male NIH Swiss mice. Briefly: DOI drug discrimination. In kind it is in vivo.
For another assay, the system named is male C57BL/6J mice. Briefly: PCP-induced hyperlocomotor activity (open field). It is filed as in vivo. Here is the method: Locomotor activity was assessed in AccuScan activity monitors (41X41X30 cm; AccuScan Instruments, Columbus, OH) with photocells spaced at 1.52 cm as described. In these monitors, the photocells create a grid of light beams, and breaks in the light beams (caused by the mouse) are recorded. The Accuscan software then calculates the total distance travelled (amongst other measurements) by analyzing the sequential order of beam breaks in the grid. Horizontal activity was measured as the total distance traveled in centimeters and was recorded in 5-minute bins. PCP-induced hyperlocomotor activity: mice (n = 16) previously acclimated to activity chambers were placed into the chambers for 15 minutes. […] Subsequently, mice were injected with 6.0 mg/kg PCP (i.p.) and returned to the chamber for 90 minutes. Induction of AMPH-induced hyperlocomotor activity followed an identical protocol except locomotor activity was recorded for a total of 75 minutes and 3 mg/kg AMPH was used (i.p.).

T2 sequence (P14416 whole entry, species assumed): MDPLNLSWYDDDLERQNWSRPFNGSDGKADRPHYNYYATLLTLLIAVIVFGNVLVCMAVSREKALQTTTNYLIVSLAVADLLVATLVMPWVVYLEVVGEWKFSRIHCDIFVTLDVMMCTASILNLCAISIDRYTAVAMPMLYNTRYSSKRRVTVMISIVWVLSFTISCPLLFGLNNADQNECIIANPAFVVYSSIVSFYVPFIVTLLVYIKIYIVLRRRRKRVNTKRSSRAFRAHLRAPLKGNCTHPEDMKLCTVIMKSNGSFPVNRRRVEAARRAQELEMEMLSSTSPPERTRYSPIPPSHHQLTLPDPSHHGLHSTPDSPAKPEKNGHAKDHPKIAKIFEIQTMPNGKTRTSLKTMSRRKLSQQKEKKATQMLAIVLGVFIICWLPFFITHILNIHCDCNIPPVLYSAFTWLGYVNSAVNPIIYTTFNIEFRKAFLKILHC
α2A, sequence (P08913 whole entry): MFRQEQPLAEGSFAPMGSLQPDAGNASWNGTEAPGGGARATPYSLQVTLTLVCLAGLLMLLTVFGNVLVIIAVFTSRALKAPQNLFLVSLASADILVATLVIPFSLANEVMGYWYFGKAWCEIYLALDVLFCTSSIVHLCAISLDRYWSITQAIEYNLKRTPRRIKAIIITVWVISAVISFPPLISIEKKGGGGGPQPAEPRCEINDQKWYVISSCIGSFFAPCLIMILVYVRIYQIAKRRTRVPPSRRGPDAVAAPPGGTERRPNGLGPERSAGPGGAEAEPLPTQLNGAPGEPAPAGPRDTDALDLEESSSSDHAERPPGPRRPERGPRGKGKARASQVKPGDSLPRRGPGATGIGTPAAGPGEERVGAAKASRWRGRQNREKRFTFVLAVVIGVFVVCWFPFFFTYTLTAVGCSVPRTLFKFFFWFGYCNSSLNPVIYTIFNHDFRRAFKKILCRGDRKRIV
5-HT1D, sequence (P28221 whole entry, species assumed): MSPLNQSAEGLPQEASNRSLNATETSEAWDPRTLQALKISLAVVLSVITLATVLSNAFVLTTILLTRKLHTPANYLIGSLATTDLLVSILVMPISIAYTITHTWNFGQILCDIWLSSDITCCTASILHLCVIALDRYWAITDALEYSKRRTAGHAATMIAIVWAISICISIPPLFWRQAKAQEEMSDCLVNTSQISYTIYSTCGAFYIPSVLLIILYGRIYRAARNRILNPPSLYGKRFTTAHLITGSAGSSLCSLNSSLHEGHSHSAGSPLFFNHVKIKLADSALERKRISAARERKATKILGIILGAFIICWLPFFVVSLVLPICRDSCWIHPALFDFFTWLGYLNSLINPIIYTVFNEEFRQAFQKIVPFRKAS
α2B, sequence (P18089 whole entry): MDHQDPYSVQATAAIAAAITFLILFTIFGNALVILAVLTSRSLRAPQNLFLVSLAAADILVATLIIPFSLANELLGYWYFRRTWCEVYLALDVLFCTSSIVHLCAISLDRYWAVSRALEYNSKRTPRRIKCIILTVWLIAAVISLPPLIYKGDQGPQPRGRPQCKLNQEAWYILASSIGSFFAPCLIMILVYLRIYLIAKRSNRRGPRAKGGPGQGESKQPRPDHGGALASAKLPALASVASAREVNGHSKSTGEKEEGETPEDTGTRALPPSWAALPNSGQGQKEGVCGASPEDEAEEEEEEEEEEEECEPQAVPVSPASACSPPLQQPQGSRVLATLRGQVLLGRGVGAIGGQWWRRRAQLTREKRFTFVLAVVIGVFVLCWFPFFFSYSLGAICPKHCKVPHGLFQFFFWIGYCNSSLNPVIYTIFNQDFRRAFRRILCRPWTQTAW

For orientation: IC50 means the concentration at which inhibition is half-maximal. Low readings indicate greater potency, high ones weaker potency. In general, EC50 refers to the midpoint of the concentration-response curve. `COc1cc2c3c(c1OC)-c1ccccc1C[C@H]3N(C)CC2` [nuciferine]: the Ki on 5-HT2C was found to be 60.5 nM; at 5-HT1D, 518 nM; at α1D it was 818 nM; at α2A, 1150 nM; on α2B, 687 nM; on α2C, 693 nM. Moreover, the figures for the “Function Type” value at dopamine D2 receptor and on 5-HT2A were “Partial agonist” and “Antagonist”, respectively. The Emax on dopamine D2 receptor (D2 partial agonist activity, Fig 4A) is listed as 67 % of dopamine. On 5-HT2A (5-HT2A antagonist activity), the IC50 stood at 478 nM. At 5-HT2A (antagonist), the EC50 came to 478 nM. The figures for the “substitution of cumulative DOI doses for the DOI training dose” value in the assay on male NIH Swiss mice (in the presence of 1.0 mg/kg nuciferine) and with male NIH Swiss mice (in the presence of 3.0 mg/kg nuciferine) were “partial substitution” and “no cumulative dose of DOI substituted for the training dose”, respectively. The PCP-stimulated locomotor activity result in the assay on male C57BL/6J mice (3 mg/kg i.p. before 6.0 mg/kg PCP) was “failed to significantly alter the PCP-induced hyperlocomotion”; in the assay on male C57BL/6J mice (10.0 mg/kg i.p. before 6.0 mg/kg PCP), “significantly blocked”.

The record behind these values is article PMC4786259 (PLoS ONE, 2016).
